Data on five compounds can be found in PMC12931196, “Vm–MSI: a Vancomycin–Antimicrobial Peptide Conjugate Combating Resistant Bacteria and Broadening the Antimicrobial Spectrum” (Advanced Science, 2025).

Like-named read-outs stand apart in the source and are kept apart here. Ends that are not written are not given here.

Turning to `CC[C@H](C)[C@H](NC(=O)[C@H](CCCNC(=N)N)NC(=O)[C@H](CCCNC(=N)N)NC(=O)[C@@H](N)CSC1CC(=O)N(CC2CCC(C(=O)N(C)[C@H](CC(C)C)C(=O)N[C@H]3C(=O)N[C@@H](CC(N)=O)C(=O)N[C@H]4C(=O)N[C@H]5C(=O)N[C@H](C(=O)N[C@H](C(=O)O)c6cc(O)cc(O)c6-c6cc5ccc6O)[C@H](O)c5ccc(c(Cl)c5)Oc5cc4cc(c5O[C@@H]4O[C@H](CO)[C@@H](O)[C@H](O)[C@H]4O[C@H]4C[C@](C)(N)[C@H](O)[C@H](C)O4)Oc4ccc(cc4Cl)[C@H]3O)CC2)C1=O)C(=O)N[C@@H](CCCNC(=N)N)C(=O)N1CCC[C@H]1C(=O)N[C@@H](CCCNC(=N)N)C(=O)N1CCC[C@H]1C(=O)N1CCC[C@H]1C(=O)N[C@@H](CCCNC(=N)N)C(=O)N[C@@H](CC(C)C)C(=O)N1CCC[C@H]1C(=O)N[C@@H](CCCNC(=N)N)C(=O)N1CCC[C@H]1C(=O)N[C@@H](CCCNC(=N)N)C(=O)N1CCC[C@H]1C(=O)N[C@@H](CCCNC(=N)N)C(=O)N1CCC[C@H]1C(=O)O` (some centres unmarked) [Vm-Bac], the MIC against S. aureus CMCC26003 (CMCC26003, 18 h) was 0.78(0.20) µg mL^−1; against S. aureus ATCC29213 (ATCC29213, 18 h), 2.34(0.59) µg mL^−1; with VRSA 52 (52, 18 h) it was 18.75(4.76) µg mL^−1; against S. aureus 15772 (15772, 18 h), 2.34(0.59) µg mL^−1; against E. coli ATCC25922 (ATCC25922, 18 h), 18.75(4.76) µg mL^−1; with MRSA ATCC43300 (ATCC43300, 18 h), 2.34(0.59) µg mL^−1. Also, the MIC against K. pneumoniae 9883 (9883, 18 h) is >100(>25.4) µg mL^−1; against E. faecalis ATCC29212 (ATCC29212, 18 h) it was 18.75(4.76) µg mL^−1; against A. baumannii ATCC19606 (ATCC19606, 18 h), 18.75(4.76) µg mL^−1; against S. aureus 15192 (15192, 18 h) it was 1.17(0.30) µg mL^−1; against VRSA 11 (11, 18 h) it was 18.75(4.76) µg mL^−1; in the experiment on S. typhimurium ATCC14028 (ATCC14028, 18 h), 37.5(9.52) µg mL^−1. For the same compound, the MIC in the experiment on P. aeruginosa ATCC27853 (ATCC27853, 18 h) is listed as >100(>25.4) µg mL^−1.
`CC[C@H](C)[C@H](NC(=O)[C@@H](N)CSC1CC(=O)N(CC2CCC(C(=O)N(C)[C@H](CC(C)C)C(=O)N[C@H]3C(=O)N[C@@H](CC(N)=O)C(=O)N[C@H]4C(=O)N[C@H]5C(=O)N[C@H](C(=O)N[C@H](C(=O)O)c6cc(O)cc(O)c6-c6cc5ccc6O)[C@H](O)c5ccc(c(Cl)c5)Oc5cc4cc(c5O[C@@H]4O[C@H](CO)[C@@H](O)[C@H](O)[C@H]4O[C@H]4C[C@](C)(N)[C@H](O)[C@H](C)O4)Oc4ccc(cc4Cl)[C@H]3O)CC2)C1=O)C(=O)N[C@@H](CC(C)C)C(=O)N[C@@H](CCCNC(=N)N)C(=O)N[C@@H](Cc1c[nH]c2ccccc12)C(=O)N1CCC[C@H]1C(=O)N[C@@H](Cc1c[nH]c2ccccc12)C(=O)N[C@@H](Cc1c[nH]c2ccccc12)C(=O)N1CCC[C@H]1C(=O)N[C@@H](Cc1c[nH]c2ccccc12)C(=O)N[C@@H](CCCNC(=N)N)C(=O)N[C@@H](CCCNC(=N)N)C(=O)N[C@@H](CCCCN)C(N)=O` (some centres unmarked) [Vm-Omi]: the MIC against S. aureus CMCC26003 (CMCC26003, 18 h) is 0.78(0.22) µg mL^−1; in the experiment with S. aureus ATCC29213 (ATCC29213, 18 h), 1.17(0.33) µg mL^−1; against VRSA 52 (52, 18 h), 75(21.13) µg mL^−1; against S. aureus 15772 (15772, 18 h), >100(>28) µg mL^−1; against E. coli ATCC25922 (ATCC25922, 18 h), >100(>28) µg mL^−1; in the experiment with MRSA ATCC43300 (ATCC43300, 18 h), 4.69(1.32) µg mL^−1. For the same compound, the MIC is on record as >100(>28) µg mL^−1 with K. pneumoniae 9883 (9883, 18 h); >100(>28) µg mL^−1 with E. faecalis ATCC29212 (ATCC29212, 18 h); >100(>28) µg mL^−1 against A. baumannii ATCC19606 (ATCC19606, 18 h); 0.78(0.22) µg mL^−1 with S. aureus 15192 (15192, 18 h); 75(21.13) µg mL^−1 against VRSA 11 (11, 18 h); >100(>28) µg mL^−1 in the experiment with S. typhimurium ATCC14028 (ATCC14028, 18 h). In addition, in the experiment on P. aeruginosa ATCC27853 (ATCC27853, 18 h), the MIC was >100(>28) µg mL^−1.
Turning to `CC(C)C[C@H](NC(=O)[C@H](Cc1ccc(O)cc1)NC(=O)[C@H](Cc1c[nH]cn1)NC(=O)[C@@H](NC(=O)[C@H](CC(C)C)NC(=O)[C@H](C)NC(=O)[C@H](C)NC(=O)[C@H](CCCCN)NC(=O)CNC(=O)[C@@H](NC(=O)[C@H](Cc1c[nH]cn1)NC(=O)[C@H](CCCCN)NC(=O)CNC(=O)[C@@H](NC(=O)[C@H](Cc1c[nH]cn1)NC(=O)[C@H](C)NC(=O)[C@H](C)NC(=O)[C@H](CCCCN)NC(=O)[C@H](CCCCN)NC(=O)[C@H](Cc1ccccc1)NC(=O)[C@H](Cc1ccccc1)NC(=O)[C@H](CO)NC(=O)CNC(=O)[C@H](Cc1c[nH]c2ccccc12)NC(=O)CNC(=O)[C@@H](N)CSC1CC(=O)N(CC2CCC(C(=O)N(C)[C@H](CC(C)C)C(=O)N[C@H]3C(=O)N[C@@H](CC(N)=O)C(=O)N[C@H]4C(=O)N[C@H]5C(=O)N[C@H](C(=O)N[C@H](C(=O)O)c6cc(O)cc(O)c6-c6cc5ccc6O)[C@H](O)c5ccc(c(Cl)c5)Oc5cc4cc(c5O[C@@H]4O[C@H](CO)[C@@H](O)[C@H](O)[C@H]4O[C@H]4C[C@](C)(N)[C@H](O)[C@H](C)O4)Oc4ccc(cc4Cl)[C@H]3O)CC2)C1=O)C(C)C)C(C)C)[C@@H](C)O)C(N)=O` (some centres unmarked) [Vm-Ple], the MIC in the experiment on S. aureus CMCC26003 (S. aureus CMCC26003, MH broth, 37 °C, 18 h, OD600) was 0.78(0.17) µg mL^−1; in the experiment with S. aureus ATCC29213 (S. aureus ATCC29213, MH broth, 37 °C, 18 h, OD600) it was 4.69(1.05) µg mL^−1; with VRSA 52 (VRSA 52, MH broth, 37 °C, 18 h, OD600) it was 9.38(2.10) µg mL^−1; against S. aureus 15772 (S. aureus 15772, MH broth, 37 °C, 18 h, OD600), 2.34(0.52) µg mL^−1; with E. coli ATCC25922 (E. coli ATCC25922, MH broth, 37 °C, 18 h, OD600) it was 4.69(1.05) µg mL^−1; in the experiment on MRSA ATCC43300 (MRSA ATCC43300, MH broth, 37 °C, 18 h, OD600), 4.69(1.05) µg mL^−1. The MIC with K. pneumoniae 9883 (K. pneumoniae 9883, MH broth, 37 °C, 18 h, OD600) is 37.5(8.37) µg mL^−1; with E. faecalis ATCC29212 (E. faecalis ATCC29212, MH broth, 37 °C, 18 h, OD600), 18.75(4.19) µg mL^−1; against A. baumannii ATCC19606 (A. baumannii ATCC19606, MH broth, 37 °C, 18 h, OD600), 2.34(0.52) µg mL^−1; in the experiment on S. aureus 15192 (S. aureus 15192, MH broth, 37 °C, 18 h, OD600), 2.34(0.52) µg mL^−1; in the experiment on VRSA 11 (VRSA 11, MH broth, 37 °C, 18 h, OD600), 9.38(2.10) µg mL^−1; in the experiment with S. typhimurium ATCC14028 (S. typhimurium ATCC14028, MH broth, 37 °C, 18 h, OD600), 75(16.75) µg mL^−1. In addition, the MIC against P. aeruginosa ATCC27853 (P. aeruginosa ATCC27853, MH broth, 37 °C, 18 h, OD600) is reported as >100(>22.33) µg mL^−1.
As to “GWGSFFKKAAHVGKHVGKAALTHYL-NH2 [Pleurecidin]”, the MIC against S. aureus CMCC26003 (CMCC26003, 18 h) is 1.17(0.43) µg mL^−1; in the experiment with S. aureus ATCC29213 (ATCC29213, 18 h), 9.38(3.46) µg mL^−1; against VRSA 52 (52, 18 h) it was 9.38(3.46) µg mL^−1; with S. aureus 15772 (15772, 18 h), 9.38(3.46) µg mL^−1; against E. coli ATCC25922 (ATCC25922, 18 h), 2.34(0.86) µg mL^−1; in the experiment with MRSA ATCC43300 (ATCC43300, 18 h), 2.34(0.86) µg mL^−1. The MIC against K. pneumoniae 9883 (9883, 18 h) is on record as 4.69(1.73) µg mL^−1; against E. faecalis ATCC29212 (ATCC29212, 18 h), 4.69(1.73) µg mL^−1; with A. baumannii ATCC19606 (ATCC19606, 18 h) it was 9.38(3.46) µg mL^−1; in the experiment with S. aureus 15192 (15192, 18 h), 9.38(3.46) µg mL^−1; against VRSA 11 (11, 18 h) it was 4.69(1.73) µg mL^−1; against S. typhimurium ATCC14028 (ATCC14028, 18 h) it was 18.75(6.92) µg mL^−1. In addition, the MIC in the experiment on P. aeruginosa ATCC27853 (ATCC27853, 18 h) is 9.38(3.46) µg mL^−1.
For RRIRPRPPRLPRPRPRP [Bac-7], the MIC is recorded as 37.5(17.27) µg mL^−1 against S. aureus CMCC26003 (CMCC26003, 18 h); >100(>46.0) µg mL^−1 against S. aureus ATCC29213 (ATCC29213, 18 h); 75(34.53) µg mL^−1 against VRSA 52 (52, 18 h); 75(34.53) µg mL^−1 in the experiment on S. aureus 15772 (15772, 18 h); 18.75(8.63) µg mL^−1 with E. coli ATCC25922 (ATCC25922, 18 h); 9.38(4.32) µg mL^−1 in the experiment with MRSA ATCC43300 (ATCC43300, 18 h). The MIC is listed as 9.38(4.32) µg mL^−1 against K. pneumoniae 9883 (9883, 18 h); 18.75(8.63) µg mL^−1 against E. faecalis ATCC29212 (ATCC29212, 18 h); >100(>46.0) µg mL^−1 against A. baumannii ATCC19606 (ATCC19606, 18 h); 75(34.53) µg mL^−1 with S. aureus 15192 (15192, 18 h); 75(34.53) µg mL^−1 in the experiment on VRSA 11 (11, 18 h); 75(34.53) µg mL^−1 against S. typhimurium ATCC14028 (ATCC14028, 18 h). In addition, in the experiment on P. aeruginosa ATCC27853 (ATCC27853, 18 h), the MIC is listed as >100(>46.0) µg mL^−1.
